# According to ChEMBL document CHEMBL1142361, “Phenylglycine and phenylalanine derivatives as potent and selective HDAC1 inhibitors (SHI-1)” (Bioorg Med Chem Lett, 2008):
# Assays:
# [1] = target: Voltage-gated inwardly rectifying potassium channel KCNH2 (Homo sapiens, UniProt Q12809); assay: Inhibition of human ERG
# [2] = test system: HCT-116; assay: Antiproliferative activity against human HCT116 cells after 72 hrs; assay type: functional
# [3] = Log D at pH 7 by HPLC; assay type: physicochemical; settings: buffer
# Sequence of Voltage-gated inwardly rectifying potassium channel KCNH2 (Q12809 whole entry): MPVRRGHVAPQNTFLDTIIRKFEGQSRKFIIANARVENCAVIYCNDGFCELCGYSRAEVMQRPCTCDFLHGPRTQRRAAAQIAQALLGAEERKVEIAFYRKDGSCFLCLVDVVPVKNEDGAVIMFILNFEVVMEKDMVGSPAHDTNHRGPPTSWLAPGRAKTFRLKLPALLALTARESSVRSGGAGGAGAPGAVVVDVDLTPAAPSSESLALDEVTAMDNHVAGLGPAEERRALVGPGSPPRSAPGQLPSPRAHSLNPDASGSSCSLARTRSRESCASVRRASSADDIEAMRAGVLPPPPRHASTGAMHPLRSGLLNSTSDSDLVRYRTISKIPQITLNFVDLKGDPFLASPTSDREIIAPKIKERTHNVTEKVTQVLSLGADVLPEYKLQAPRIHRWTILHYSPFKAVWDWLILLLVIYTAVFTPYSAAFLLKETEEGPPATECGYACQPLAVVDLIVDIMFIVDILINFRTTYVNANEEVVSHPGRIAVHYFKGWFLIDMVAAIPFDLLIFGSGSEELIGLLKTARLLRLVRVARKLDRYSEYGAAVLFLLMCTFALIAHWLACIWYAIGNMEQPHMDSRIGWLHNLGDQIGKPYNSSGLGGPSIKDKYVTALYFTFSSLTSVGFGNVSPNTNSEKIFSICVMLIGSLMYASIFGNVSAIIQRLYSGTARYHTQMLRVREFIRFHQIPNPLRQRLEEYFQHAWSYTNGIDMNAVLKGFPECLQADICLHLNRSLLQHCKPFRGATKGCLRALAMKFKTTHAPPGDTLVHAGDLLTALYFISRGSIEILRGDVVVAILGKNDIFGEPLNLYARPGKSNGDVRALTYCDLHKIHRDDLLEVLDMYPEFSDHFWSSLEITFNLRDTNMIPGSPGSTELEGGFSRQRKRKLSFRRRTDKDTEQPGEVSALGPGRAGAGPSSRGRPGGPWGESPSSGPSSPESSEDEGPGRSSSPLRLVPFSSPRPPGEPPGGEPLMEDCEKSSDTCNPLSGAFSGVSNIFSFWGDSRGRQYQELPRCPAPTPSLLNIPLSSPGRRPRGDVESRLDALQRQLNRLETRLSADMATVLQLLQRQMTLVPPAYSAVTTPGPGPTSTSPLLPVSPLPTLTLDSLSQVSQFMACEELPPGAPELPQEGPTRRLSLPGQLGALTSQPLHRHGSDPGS
smiles,measurement,setting,value
CCOC(=O)C(N)c1ccc(C(=O)Nc2cc(-c3cccs3)ccc2N)cc1 (stereo not given),IC50,[1],5.7 µM
same,Activity,[2],1100 nM
NC(=O)[C@@H](N)c1ccc(C(=O)Nc2cc(-c3cccs3)ccc2N)cc1,Activity,[2],510 nM
Nc1ccc(-c2ccccc2)cc1NC(=O)c1ccccc1,Activity,[2],1700 nM
Nc1ccc(-c2cccs2)cc1NC(=O)c1ccc(C(N)C(=O)O)cc1 (stereo not given),Activity,[2],>20000 nM
CNC(=O)C(NS(C)(=O)=O)c1ccc(C(=O)Nc2cc(-c3cccs3)ccc2N)cc1 (stereo not given),Activity,[2],780 nM
CNC(=O)[C@H](N)c1ccc(C(=O)Nc2cc(-c3cccs3)ccc2N)cc1,Activity,[2],420 nM
CNC(=O)C(NC(=O)OC)c1ccc(C(=O)Nc2cc(-c3cccs3)ccc2N)cc1 (stereo not given),Activity,[2],410 nM
Nc1ccc(-c2cccs2)cc1NC(=O)c1ccccc1,logD,[3],2.7
same,Activity,[2],720 nM
